# In US20230255864A1, “NOVEL COMPOSITIONS COMBINING HEMP DERIVATIVES AND AT LEAST ONE PEPTIDE AND USE THEREOF” (FRANCE COSMEPHYL-LAB, priority 2020, published 2023):
# How the values were obtained:
# [1] = tested on: murine macrophages (RAW 267.4 cell line) stimulated with LPS from E. coli; experiment: In vitro anti-inflammatory test: inhibition of NO production in LPS-stimulated murine macrophages (Griess reaction); type: cell-based
# Description: Low-grade inflammation is strongly implicated in degenerative processes in human skin such as photoaging and atopy. The reduction of low-intensity inflammatory reactions by topical products may be necessary in the event of cutaneous aggression, to obtain optimal healing and restore the physiological balance of human skin. In order to identify new anti-inflammatory candidates, an in vitro anti-inflammatory test was developed with a murine cell line: the murine macrophage test RAW 267.4. This test was used to monitor the inhibitory effects of chemical compounds or natural extracts on the low-intensity inflammatory cascade leading to overproduction of nitrogen oxide (NO) in the endothelial wall of blood vessels.
# The study was carried out to evaluate the ability of cannabidiol, palmitoyl tripeptide-8 (active ingredient in Neutrazen™), and their mixture to inhibit the pro-inflammatory cascade leading to the production of NO in murine macrophages stimulated by liposaccharides (LPS).
# The in vitro anti-inflammatory test is based on the ability of murine macrophages to generate a strong inflammatory response when stimulated by antigens such as LPS. Immobilized murine macrophages (RAW 267.4 cell line) are stimulated with LPS from E. coli and exposed for 24 hours. At the end of the incubation period, the production of NO is evaluated indirectly by measuring the accumulation of nitrite/nitrate, stable final products of the oxidation of NO, in the culture medium using a method spectrophotometric based on the Griess reaction.
# (§1) MURINS RAW 267.4 Macrophage cell line (Sigma-Aldrich, No. P6110401, Lot. 091006), low number of passages (less than 50).
# (§2) Complete medium: DMEM with stabilized L-glutamine (Dulbecco's Minimum Essential Medium, PAN BIOTECH. Lot 974251) supplemented with Penicillin 100 IU/ml and streptomycin 100 μg/m1 (PAN BIOTECH, Lot 225614), and 10% inactivated calf serum (PAN BIOTECH, Lot P460518), pH 7.2, freshly prepared, stored for less than 3 weeks.
# (§3) Cannabidiol (CBD) is diluted in DMSO (10 mg/mL storage solution), and subjected to an ultrasonic bath for 20 minutes. The Neutrazen™ solution is diluted in PBS (Phosphate buffer saline, Sigma-Aldrich).
# The negative control: DMSO 1% The positive control: Dexamethasone (Sigma-Aldrich) 1-5-10-50-100 μM.
# (§4) RAW 267.4 murine macrophages were inoculated into 48-well tissue culture plates at a concentration of 1.10^5 cells/ml (200 μl/well) and incubated for 24 hours at 37° C. (5% CO2).
# (§5) At the end of the incubation period, the culture medium was replaced with 200 μl of medium containing the appropriate concentrations of the material to be tested, and the cells were incubated at 37° C. (5% CO2) for one hour.
# (§6) At the end of the incubation period, pro-inflammatory E. coli LPS was added to the cell cultures (1 μg/ml. Then the cells were incubated at 37° C. (5% CO2) for 24 hours.
# The amount of NO released was measured in the culture supernatant by the Griess reaction. 100 μl of the supernatants were transferred into the wells of a 96-well tissue culture plate, and modified Griess reagent (SIGMA-ALDRICH) were added to each well. After a period of 15 min at room temperature, the Optical Density (OD) of each well was read at a wavelength of 540 nm by an Infinite M200 Pro fluorescence-luminescence reader (TECAN).
# (§7) The concentrations of test material causing a 50% decrease in NO release (IC50 (NO release)) and a 50% decrease in cell viability (IC50 (cell viability)) respectively were calculated using TableCurve software Version 2.0.
# The anti-inflammatory ratio corresponds to the ratio between anti-inflammatory activity and toxicity. It is expressed as follows: […]
# Analysis of the anti-inflammatory activity and of the cell viability of the cannabidiol/palmitoyl tripeptide-8 (Neutrazen™) association in a mixture by isobologram analysis.
# [2] = tested on: RAW 267.4 murine macrophages; experiment: Cell viability of murine macrophages (WST-1 mitochondrial respiration), in parallel with NO release; type: cell-based; settings: Mus musculus, RAW267.4; non-linear regression of 3 series of experiments; positive control
# Description: as §1, §2, §3, §4, §5, §6
# In parallel with the evaluation of the release of NO, the cell viability was measured to validate the tests. Vital Stain Reagent WST-1 was used to measure cellular mitochondrial respiration. For this, the culture medium was decanted and 100 μl of WST-1 reagent ( 1/10 dilution) were added to each well. After an incubation period of 30 min at 37° C. (5% CO2), the Optical Density (OD) of each well was read at a wavelength of 450 nm by an Infinite M200 Pro fluorescence-luminescence reader (TECAN). The results obtained for the wells treated with the test material were compared with those of the untreated control wells (DMSO, 100% viability) and converted into percentage values.
# Inhibition of NO release and inhibition of cell viability were expressed as a percentage relative to the negative controls: […]
# as §7
# Analysis of the anti-inflammatory activity and of the cell viability of the cannabidiol/palmitoyl tripeptide-8 (Neutrazen™) association in a mixture by isobologram analysis. For each concentration of Neutrazen™ (0.01, 0.025, 0.05 and 0.1%), different concentrations of CBD are tested (0.01, 0.025, 0.05, 0.1, 0.25, 0.5, 1 and 2.5%) to determine both the production of NO and cell viability.
# The results obtained with the different mixtures of CBD and Neutrazen™ made it possible to calculate the pairs of concentrations corresponding to a 50% reduction in the production of NO and a 50% reduction in cell viability.
structure (smiles),measurement,setting,value
C[C@@H]1C[C@H]2[C@@H]3CCC4=CC(=O)C=C[C@]4(C)[C@@]3(F)[C@@H](O)C[C@]2(C)[C@@]1(O)C(=O)CO [Dexamethasone],IC50,"[1]; Mus musculus, RAW267.4, non-linear regression of 3 series of experiments, positive control, read-out: IC50-NO release",2.98 µM
same,Anti-inflammatory ratio,[1]; ratio between anti-inflammatory activity and toxicity (IC50 NO release and IC50 cell viability),64.65
same,IC50,[2],193 ± 4.25 µM
